Experimental data reported in patent US20070128217A1 (priority 2003, published 2007).

Legend:
[1] = test system: control sera (pooled serum of ten healthy LUMC hospital workers; commercial negative donor pooled serum from the Dutch bloodbank); format: binding, human
[2] = test system: antibodies in sera from SARS patients (sera 1a, 1b, 2, 6, 37, 62, London, SARS-yellow, SARS-green); format: binding, human; parameters: Binding of serum 6 to linear peptides of protein X1 of SARS-CoV Urbani / Binding of serum 37 to linear peptides of protein X1 of SARS-CoV Urbani / Binding of serum 6 to looped/cyclic peptide (PEPSCAN-ELISA) / Binding of serum 37 to looped/cyclic peptide (PEPSCAN-ELISA) / Binding of serum 37 to looped/cyclic peptides of protein X1 of SARS-CoV Urbani / Binding of serum 6 to linear peptides of protein X2 / Binding of serum 37 to linear peptides of protein X2 / Binding of serum 37 to looped/cyclic peptides of protein X2 of SARS-CoV Urbani / Binding of serum 6 to linear peptides of protein M of SARS-CoV Urbani / Binding of serum 37 to linear peptides of protein M of SARS-CoV Urbani / Binding of serum 6 to looped/cyclic peptides of protein M of SARS-CoV Urbani / Binding of serum 37 to looped/cyclic peptides of protein M of SARS-CoV Urbani / Binding of serum 6 to linear peptides of protein X3 of SARS-CoV Urbani / Binding of serum 37 to linear peptides of protein X3 of SARS-CoV Urbani / Binding of serum 37 to looped/cyclic peptides of protein X3 of SARS-CoV Urbani / Binding of serum 6 to linear peptides of protein X4 of SARS-CoV Urbani / Binding of serum 37 to linear peptides of protein X4 of SARS-CoV Urbani / Binding of serum 37 to looped/cyclic peptides of protein X4 of SARS-CoV Urbani / Binding of serum 6 to linear peptides of protein X5 of SARS-CoV Urbani / Binding of serum 37 to linear peptides of protein X5 of SARS-CoV Urbani / Binding of serum 37 to looped/cyclic peptides of protein X5 of SARS-CoV Urbani / Binding of serum 6 to linear peptides of protein N of SARS-CoV Urbani / Binding of serum 37 to linear peptides of protein N of SARS-CoV Urbani / Binding of serum 6 to linear peptide (PEPSCAN-ELISA) / Binding of serum 1a to looped/cyclic peptides of protein N of SARS-CoV Urbani / Binding of serum 1b to looped/cyclic peptides of protein N of SARS-CoV Urbani / Binding of serum 2 to looped/cyclic peptides of protein N of SARS-CoV Urbani / Binding of serum 6 to looped/cyclic peptides of protein N of SARS-CoV Urbani / Binding of serum 37 to looped/cyclic peptides of protein N of SARS-CoV Urbani / Binding of serum 62 to looped/cyclic peptides of protein N of SARS-CoV Urbani / Binding of serum London to looped/cyclic peptides of protein N of SARS-CoV Urbani / Binding of serum SARS-green to looped/cyclic peptides of protein N of SARS-CoV Urbani: unit not given here
[3] = test system: rabbit serum obtained by immunizing a rabbit with the SARS-CoV strain Frankfurt 1; format: binding; parameters: Binding of a rabbit serum to linear peptides / Binding of a rabbit serum to looped peptides / Rabbit serum linear peptides / Rabbit serum looped peptides / Binding of a rabbit serum to linear peptides of protein N of SARS-CoV Urbani (Rabbit serum linear peptides) / Binding of a rabbit serum to looped/cyclic peptides of protein N of SARS-CoV Urbani (Rabbit serum looped peptides): unit not given here

Sequence	Binding of Control Serum Blood-Bank to Looped peptides [1]	Binding of Control serum Blood-bank to linear peptides [1]	Binding of Control serum LUMC to linear peptides [1]	Binding of Control serum LUMC to looped peptides [1]	Binding of serum 1a to linear peptides of protein X2 [2]	Binding of serum 1a to looped/cyclic peptides of protein X2 of SARS-CoV Urbani [2]	Binding of serum 1b to linear peptides of protein X2 [2]	Binding of serum 1b to looped/cyclic peptides of protein X2 of SARS-CoV Urbani [2]	Binding of serum 2 to linear peptides of protein X2 [2]	Binding of serum 2 to looped/cyclic peptides of protein X2 of SARS-CoV Urbani [2]	Binding of serum 6 to linear peptides of protein X2 [2]	Binding of serum 6 to looped/cyclic peptides of protein X2 of SARS-CoV Urbani [2]	Binding of serum 37 to linear peptides of protein X2 [2]	Binding of serum 37 to looped/cyclic peptides of protein X2 of SARS-CoV Urbani [2]	Binding of serum 62 to looped/cyclic peptides of protein X2 of SARS-CoV Urbani [2]	Binding of serum London to looped/cyclic peptides of protein X2 of SARS-CoV Urbani [2]	Binding of serum SARS-green to looped/cyclic peptides of protein X2 of SARS-CoV Urbani [2]	Binding of serum SARS-yellow to looped/cyclic peptides of protein X2 of SARS-CoV Urbani [2]	Binding of a rabbit serum to linear peptides [3]	Binding of a rabbit serum to looped peptides [3]	other results
SSSLTSLLKTHRMCK	0.4	1.0	0.7	0.4	0.6	0.3	0.5	0.4	0.4	0.1	0.8	0.1	0.6	0.2	0.3	0.1	0.3	0.5	0.3	0.2	Binding of serum 62 to linear peptides of protein X2 [2]: 0.7; Binding of serum London to linear peptides of protein X2 [2]: 0.6; Binding of serum SARS-green to linear peptides of protein X2 [2]: 0.6; Binding of serum SARS-yellow to linear peptides of protein X2 [2]: 0.2
STALQELLIQQWIQF	0.6	0.6	0.3	0.7	0.6	0.6	0.4	0.5	0.3	0.4	0.3	0.2	0.5	0.4	0.6	0.2	0.3	0.5	0.3	0.4	Binding of serum 62 to linear peptides of protein X2 [2]: 0.6; Binding of serum London to linear peptides of protein X2 [2]: 0.4; Binding of serum SARS-green to linear peptides of protein X2 [2]: 0.5; Binding of serum SARS-yellow to linear peptides of protein X2 [2]: 0.3
STNLCTHSFRKKQVR	0.5	0.9	0.8	0.8		0.5		0.3		0.5		0.6		0.5	0.5	0.2	0.2	0.5	0.7	0.2	Recognition of the peptide by sera of SARS-CoV infected individuals, and form (linear, looped/cyclic) in which it is recognized [2]: recognized in linear form
